Laboratory results published in ChEMBL document CHEMBL1201862, “PubChem BioAssay data set” (2004).
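Compound exposure: 48 hours, 5 concentrations, 96-well plates. GI50 = concentration required for 50% inhibition of growth.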 Active and inactive are the calls of the source. Rule as the data show it: active = GI50 up to about 1.1 µM and inactive = higher.

Columns and labels:
Test in all cases: inhibition of tumour cell growth, NCI panel, 48 h
HT-29 = test system: HT-29
UACC-257 = test system: UACC-257
HOP-92 = test system: HOP-92
A549 = test system: A549
EKVX = test system: EKVX
SK-MEL-5 = test system: SK-MEL-5
COLO 205 = test system: COLO 205
NCI-H460 = test system: NCI-H460
Hs-578T = test system: Hs-578T
MDA-MB-231 = test system: MDA-MB-231
OVCAR-8 = test system: OVCAR-8
SR = test system: SR
KM-20L2 = test system: KM-20L2
NCI/ADR-RES = test system: NCI/ADR-RES
NCI-H226 = test system: NCI-H226
HCC 2998 = test system: HCC 2998
SF-295 = test system: SF-295
SF-539 = test system: SF-539
NCI-H522 = test system: NCI-H522
SW-620 = test system: SW-620

Measured: GI50

Nc1ncnc2c1nc(Cl)n2[C@@H]1O[C@@H]2COP(=O)(O)O[C@H]2[C@H]1O [TOCLADESINE]
inactive: HT-29 8.39 µM | UACC-257 42.6 µM | HOP-92 12.2 µM | A549 22.8 µM | EKVX 35.6 µM | SK-MEL-5 152 µM | COLO 205 10 µM | NCI-H460 7.03 µM | Hs-578T 28.7 µM | MDA-MB-231 21.5 µM | OVCAR-8 5.42 µM | SR 4.7 µM | KM-20L2 13.5 µM | NCI/ADR-RES 6.67 µM | NCI-H226 6.18 µM | HCC 2998 37.8 µM | SF-295 51.2 µM | SF-539 49 µM | NCI-H522 27.1 µM | SW-620 12.1 µM
